Test results: patent US8822449B2, “Substituted aminoindanes and analogs thereof, and the pharmaceutical use thereof” (Sanofi, priority 2008, dated 2014)

biological target: T1, sodium-proton exchanger of subtype 3 (NHE3) (Homo sapiens, UniProt P48764); test: Recovery of intracellular pH (pHi) after acidification in LAP1 cells stably expressing NHE3 (BCECF fluorescence, FLIPR); format: cell-based; settings: LAP1 cells stably expressing NHE3; pH recovery after acidification; range 1 is % inhibition at 10 μM; read-out: Activity range (inhibitory effect on NHE3)
T1 construct: expressed in transfected cells
T1 sequence (P48764 26-834): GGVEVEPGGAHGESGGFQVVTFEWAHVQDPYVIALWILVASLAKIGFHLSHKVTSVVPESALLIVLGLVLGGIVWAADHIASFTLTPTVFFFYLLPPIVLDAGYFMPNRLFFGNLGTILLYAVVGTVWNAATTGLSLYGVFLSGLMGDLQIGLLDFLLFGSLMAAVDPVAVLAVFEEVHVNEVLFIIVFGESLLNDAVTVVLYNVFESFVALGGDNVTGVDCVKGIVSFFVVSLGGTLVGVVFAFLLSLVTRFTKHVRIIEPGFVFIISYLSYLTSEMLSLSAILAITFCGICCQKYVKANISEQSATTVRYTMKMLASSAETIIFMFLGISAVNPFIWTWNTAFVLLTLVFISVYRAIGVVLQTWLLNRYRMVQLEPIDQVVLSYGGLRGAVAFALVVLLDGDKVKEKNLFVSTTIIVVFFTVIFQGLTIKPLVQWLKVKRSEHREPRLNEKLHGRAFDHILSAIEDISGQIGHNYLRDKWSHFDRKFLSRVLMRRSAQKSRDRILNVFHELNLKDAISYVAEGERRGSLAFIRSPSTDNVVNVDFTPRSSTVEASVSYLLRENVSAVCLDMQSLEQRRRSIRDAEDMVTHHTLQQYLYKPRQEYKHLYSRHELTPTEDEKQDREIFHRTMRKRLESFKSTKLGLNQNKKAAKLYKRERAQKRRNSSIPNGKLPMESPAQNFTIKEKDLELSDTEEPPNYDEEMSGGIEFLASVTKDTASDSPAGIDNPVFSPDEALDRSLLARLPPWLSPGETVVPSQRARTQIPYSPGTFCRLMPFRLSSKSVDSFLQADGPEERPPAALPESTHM

SMILES | inhibition at 10 µM [%] | IC50 [µM]
NS(=O)(=O)c1ccc(OC2c3ccccc3CC2N2CC[C@@H](N3CCCC3)C2)cc1 (mixture of isomers) [Example 463, 4-(rac-trans-(1,2)-(R)-2-[1,3′]Bipyrrolidinyl-1′-ylindan-1-yloxy)benzenesulfonamide] |  | 1 to 10
N#Cc1c(F)cccc1O[C@@H]1c2ccccc2C[C@H]1N1CCC(CN)C1 (mixture of isomers) [Example 374, 2-[rac-trans-(1,2)-2-(3-aminomethylpyrrolidin-1-yl)indan-1-yloxy]-6-fluorobenzonitrile] |  | 1 to 10
N[C@@H]1CCCN([C@@H]2Cc3ccccc3[C@H]2Oc2ccc3ccncc3c2)C1 (racemic) [Example 85, (R)-1-[rac-trans-(1,2)-1-(isoquinolin-7-yloxy)indan-2-yl]piperidin-3-ylamine] |  | 1 to 10
Cc1ccc(O[C@H]2c3ccccc3CC[C@@H]2N2CCC[C@@H](N)C2)c(Cl)c1 (racemic) [Example 38, (R)-1-[rac-trans-(1,2)-1-(2-chloro-4-methylphenoxy)-1,2,3,4-tetrahydronaphthalen-2-yl]piperidin-3-ylamine] | 20 to 50 | 
N[C@H]1CCCN([C@H]2CCc3ccccc3[C@@H]2Oc2cccc(OC(F)F)c2)C1 (racemic) [Example 166, (S)-1-[rac-trans-(1,2)-1-(3-difluoromethoxyphenoxy)-1,2,3,4-tetrahydronaphthalen-2-yl]piperidin-3-ylamine] | 20 to 50 | 
CN(C)[C@@H]1CCCN([C@H]2Cc3c(Cl)cc(Cl)cc3[C@@H]2Oc2ccc(S(C)(=O)=O)cc2)C1 [Example 224, {(R)-1-[trans-(1S,2S)-4,6-dichloro-1-(4-methanesulfonylphenoxy)indan-2-yl]piperidin-3-yl}-dimethylamine] |  | < 1
Cc1cc(C)n(-c2ccc(O[C@H]3c4cc(Cl)cc(Cl)c4C[C@@H]3N3CC[C@@H](O)C3)c(F)c2)n1 [Example 136, (R)-1-{trans-(1S,2S)-4,6-dichloro-1-[4-(3,5-dimethylpyrazol-1-yl)-2-fluorophenoxy]indan-2-yl}pyrrolidin-3-ol] | 20 to 50 | 
CCN(CC)[C@@H]1Cc2ccccc2[C@H]1Oc1cccc(N2CCNCC2)c1 (racemic) [Example 626, Diethyl-[rac-trans-(1,2)-1-(3-piperazin-1-ylphenoxy)indan-2-yl]amine] |  | 1 to 10
COC(=O)c1ccc(O[C@H]2c3cc(Cl)ccc3C[C@@H]2N2CC[C@@H](O)C2)c(Cl)c1 [Example 446, 3-chloro-4-[trans-(1S,2S)-6-chloro-2-((R)-3-hydroxypyrrolidin-1-yl)indan-1-yloxy]benzoic acid methyl ester] | 20 to 50 | 
CCc1ccc(O[C@@H]2c3ccccc3C[C@H]2N2CCC[C@@H](N)C2)c(C(C)(C)C)c1 (racemic) [Example 49, (R)-1-[rac-trans-(1,2)-1-(2-tert-butyl-4-ethylphenoxy)indan-2-yl]piperidin-3-ylamine] |  | 1 to 10
N[C@@H]1CCCN([C@H]2CCc3ccccc3[C@@H]2Oc2cccc3[nH]nnc23)C1 (racemic) [Example 29, (R)-1-[rac-trans-(1,2)-1-(1H-benzotriazol-4-yloxy)-1,2,3,4-tetrahydronaphthalen-2-yl]piperidin-3-ylamine] |  | 1 to 10
CS(=O)(=O)c1cc(Cl)c(O[C@H]2c3ccccc3C[C@@H]2N2CCCC2)c(Cl)c1 (racemic) [Example 264, 1-[rac-trans-(1,2)-1-(2,6-dichloro-4-methanesulfonylphenoxy)indan-2-yl]pyrrolidine] |  | 1 to 10
CN(C1CCCNC1)[C@@H]1Cc2ccccc2[C@H]1Oc1cccc2[nH]ccc12 (mixture of isomers) [Example 214, [rac-trans-(1,2)-1-(1H-indol-4-yloxy)indan-2-yl]methylpiperidin-3-ylamine] |  | 1 to 10
CS(=O)(=O)c1ccc(O[C@H]2c3cc(Cl)cc(Cl)c3C[C@@H]2N2CC[C@H](N)C2)cc1 [Example 199, (S)-1-[trans-(1S,2S)-4,6-dichloro-1-(4-methanesulfonylphenoxy)indan-2-yl]pyrrolidin-3-ylamine] |  | < 1
NC(=O)c1cc(Cl)ccc1O[C@H]1c2ccccc2CC[C@@H]1N1CCC[C@H](N)C1 (racemic) [Example 370, 2-[rac-trans-(1,2)-2-((S)-3-aminopiperidin-1-yl)-1,2,3,4-tetrahydronaphthalen-1-yloxy]-5-chlorobenzamide] |  | < 1
CS(=O)(=O)c1ccc(O[C@H]2c3ccccc3C[C@@H]2N2CCNCC2)cc1 (racemic) [Example 272, 1-[rac-trans-(1,2)-1-(4-methanesulfonylphenoxy)indan-2-yl]piperazine] |  | 1 to 10
CS(=O)(=O)c1ccc(O[C@H]2c3ccccc3C[C@@H]2CN2CCCC2)cc1 (racemic) [Example 274, 1-[rac-trans-(1,2)-1-(4-methanesulfonylphenoxy)indan-2-ylmethyl]pyrrolidine] |  | 1 to 10
N[C@H]1CCCN([C@H]2CCc3ccccc3[C@@H]2Oc2ccc(F)cc2-c2cc[nH]n2)C1 (racemic) [Example 205, (S)-1-{rac-trans-(1,2)-1-[4-fluoro-2-(1H-pyrazol-3-yl)phenoxy]-1,2,3,4-tetrahydronaphthalen-2-yl}piperidin-3-ylamine] | 20 to 50 | 

Now from value to compound:

inhibition at 10 µM [%] | IC50 [µM] | SMILES
20 to 50 |  | CS(=O)(=O)c1ccc(O[C@H]2c3ccccc3C[C@@H]2N2CCn3cnnc3C2)cc1 (racemic) [Example 590, 7-[rac-trans-(1,2)-1-(4-methanesulfonylphenoxy)indan-2-yl]-5,6,7,8-tetrahydro-[1,2,4]triazolo[4,3-a]pyrazine]
 | 1 to 10 | COC(=O)c1ccc(O[C@H]2c3cc(Cl)cc(Cl)c3C[C@@H]2N2CC[C@@H](O)C2)c(F)c1 [Example 553, 4-[trans-(1S,2S)-4,6-dichloro-2-((R)-3-hydroxypyrrolidin-1-yl)indan-1-yloxy]-3-fluorobenzoic acid methyl ester]
 | 1 to 10 | CC(=O)Nc1cccc(O[C@H]2c3cc(Cl)cc(Cl)c3C[C@@H]2N2CCNCC2)c1 (racemic) [Example 647, N-[3-(rac-trans-(1,2)-4,6-dichloro-2-piperazin-1-ylindan-1-yloxy)phenyl]acetamide]
 | 1 to 10 | CCc1ccc(O[C@@H]2c3ccccc3C[C@H]2N2CCC(CN)CC2)c(C(C)(C)C)c1 (racemic) [Example 609, C-{1-[rac-trans-(1,2)-1-(2-tert-butyl-4-ethylphenoxy)indan-2-yl]piperidin-4-yl}methylamine]
 | < 1 | CC(=O)Nc1cccc(O[C@H]2c3cc(Cl)cc(Cl)c3C[C@@H]2N2CC[C@@H](O)C2)c1 [Example 696, N-{3-[trans-(1S,2S)-4,6-dichloro-2-((R)-3-hydroxypyrrolidin-1-yl)indan-1-yloxy]phenyl}acetamide]
20 to 50 |  | CS(=O)(=O)c1ccc(O[C@H]2c3ccccc3C[C@@H]2CN2CCOCC2)cc1 (racemic) [Example 487, 4-[1-(4-methanesulfonylphenoxy)indan-2-ylmethyl]morpholine]
 | < 1 | CC(=O)Nc1cccc(O[C@H]2c3cc(Cl)cc(F)c3C[C@@H]2N2CCNCC2)c1 (racemic) [Example 659, N-[3-(rac-trans-(1,2)-6-chloro-4-fluoro-2-piperazin-1-ylindan-1-yloxy)phenyl]acetamide]
 | 1 to 10 | CCOc1cccc(O[C@@H]2c3ccccc3C[C@H]2N2CCC(CN)C2)c1 (mixture of isomers) [Example 615, C-{1-[rac-trans-(1,2)-1-(3-ethoxyphenoxy)indan-2-yl]pyrrolidin-3-yl}methylamine]
 | < 1 | Cc1nnc(C)n1-c1ccc(O[C@H]2c3cc(Cl)cc(Cl)c3C[C@@H]2N2CCCC2)c(F)c1 [Example 499, 4-[4-(trans-(1S,2S)-4,6-dichloro-2-pyrrolidin-1-ylindan-1-yloxy)-3-fluorophenyl]-3,5-dimethyl-4H-[1,2,4]triazole]
 | 1 to 10 | CN(C1CCNCC1)[C@@H]1Cc2ccccc2[C@H]1Oc1ccc(N2CCNCC2)cc1 (racemic) [Example 630, methyl-[rac-trans-(1,2)-1-(4-piperazin-1-ylphenoxy)indan-2-yl]piperidin-4-ylamine]
 | 1 to 10 | Cc1nc2cc(O[C@@H]3c4ccccc4C[C@H]3N3C[C@H]4CNC[C@H]4C3)ccc2s1 (racemic) [Example 576, 5-[rac-trans-(1,2)-2-(hexahydropyrrolo[3,4-c]pyrrol-2-yl)indan-1-yloxy]-2-methylbenzothiazole]
20 to 50 |  | N#Cc1ccc(O[C@H]2c3ccccc3CC[C@@H]2N2CCC[C@H](N)C2)cc1F (racemic) [Example 530, 4-[rac-trans-(1,2)-2-((S)-3-aminopiperidin-1-yl)-1,2,3,4-tetrahydronaphthalen-1-yloxy]-2-fluorobenzonitrile]
 | < 1 | CC(=O)Nc1cccc(O[C@H]2c3ccccc3C[C@@H]2N2CCCCCC2)c1 (racemic) [Example 636, N-[3-(rac-trans-(1,2)-2-azepan-1-ylindan-1-yloxy)phenyl]acetamide]
